Data: paper PMC3734263, “Fatty Acid Amide Hydrolase-Dependent Generation of Antinociceptive Drug Metabolites Acting on TRPV1 in the Brain” (PLoS ONE, 2013)

Experiments:
[1] = tested on: rodents; settings: doses not far from those eliciting antinociception in rodents; cited from earlier work
[2] = tested on: rats; assay: Formalin test, rat; assay type: in vivo; settings: 4-aminophenol 10, 30 and 100 mg/kg i.p.
Procedure: (§1) The animals received an intraplantar injection of a 2.5% formalin solution (50 µl rat, 25 µl mouse) into a hind paw. The time spent biting and licking of the injected paw was monitored during the two typical phases of the nociceptive response (phase I: 0–5 min; phase II: 20–40 min in rats or 15–40 min in mice).

[3] = tested on: rats; settings: 4-aminophenol three doses, data not shown
[4] = tested on: rats; assay: Paw pressure test, rat
Procedure: The behavioural tests were performed in a quiet room and evaluated by a single investigator in a blinded manner. Treatments and/or genotypes were randomized in blocks and the number of animals in each block corresponded to the number of treatments and/or genotypes compared. […] Each animal was exposed to only one treatment.
The rats were submitted to the paw pressure test, using an Ugo Basile analgesy meter with a probe tip diameter of 1 mm (Bioseb, France). Nociceptive thresholds, expressed in grams (g), were measured by applying an increasing pressure to the right hind paw until a squeak (vocalization thresholds) was obtained (cut-off 750 g). Two consecutive stable vocalisation threshold values were first obtained (baseline).
Intrathecal injections were performed on anaesthetised rats held in one hand by the pelvic girdle. A 25 gauge 1 inch needle connected to a 25 µl Hamilton syringe was then inserted into the subarachnoidal space between lumbar vertebrae L5 and L6 until a tail flick was elicited. The syringe was held in position for few seconds after the injection of a volume of 10 µl [49]. All injections were performed under isoflurane anaesthesia (4% induction, 2% maintenance).

[5] = Global brain levels of endocannabinoids in the rat after 4-aminophenol; assay type: in vivo; settings: 4-aminophenol 100 mg/kg i.p.; 15, 30, 45 and 60 min
Procedure: (§2) The whole brain was homogenized in ice-cold 10 mM Tris buffer (ml/g tissue) at pH 7.6. The buffer solution contained 1 mM EDTA, 0.3 mM ascorbic acid and 10 µM methylarachidonylfluorophosphonate (MAFP) to prevent degradation of AM404, arvanil, olvanil, anandamide and 2-arachidonoylglycerol. Aliquots (200 µl) of blood and homogenates were precipitated with 1 ml ice-cold acetone, containing AM404-D4 (5 nM) or anandamide-D8 (100 nM) as internal standard. After centrifugation at 25,200 g for 30 min at 4°C, the supernatants were collected in polypropylene tubes and vacuum evaporated. The protein content of the pellet was determined with Coomassie protein assay (Pierce; Illinois, USA), using bovine serum albumin as standard. […] Samples were analyzed on a Waters Aquity UPLC system coupled to a Sciex 5500 tandem mass spectrometer (LC-MS/MS; AB Sciex; Massachusetts, USA) or a Perkin Elmer 200 HPLC system coupled to an API 3000 tandem mass spectrometer (LC-MS-MS; Applied Biosystems/MDS-SCIEX).
Quantification of anandamide and 2-arachidonoylglycerol. Anandamide (m/z 348.2/62.0), anandamide-D8 (m/z 356.4/63.0) and 2-arachidonoylglycerol (m/z 379.2/287.0) were determined as previously described. Since 2-arachidonoylglycerol is non-enzymatically converted to 1-arachidonoylglycerol, the content of 2-arachidonoylglycerol was estimated as the sum of these lipids. […]

[6] = tested on: mice; assay: Tail immersion test, mouse; assay type: in vivo; settings: 30 mg/kg i.p.
Procedure: Tails of mice were submerged in a hot water bath (46°C) and the withdrawal latency recorded (cut-off 15 s). The mean of four baseline values were determined before drug administration.

[7] = tested on: mice; assay: Formalin test, mouse; assay type: in vivo; settings: for formalin test phases: HMBA 100 mg/kg
Procedure: as §1

[8] = tested on: mice; assay: von Frey filament test, mouse; assay type: in vivo; settings: 30 mg/kg i.p.
Text: Calibrated von Frey filaments (0.0045–5.4950 g) were used to induce light noxious mechanical stimulation in mice. Tests were commenced after one hour of habituation. Filaments of increasing stiffness were applied five times perpendicular to the plantar surface of the hindpaw and pressed until bending. The first filament that evoked at least three consecutive responses was assigned as the threshold (cut-off 2 g).

[9] = Contents of amines and lipid metabolites in blood and brain after i.p. injection in mice (LC-MS/MS); assay type: in vivo, mouse; settings: mouse
Procedure: Twenty min after drug administration, the animals were anesthetized by CO2 (rats) or isoflurane (mice) inhalation and decapitated. The brain was removed from the skull and blood was collected in test tubes, containing 60 µl buffered citrate, and the tissues snap frozen in liquid nitrogen before storage at −70°C.
as §2
(§3) Quantification of AM404, HPODA, arvanil and olvanil. Samples were analyzed on a Waters Aquity UPLC system coupled to a Sciex 5500 tandem mass spectrometer. Sample aliquots of 5 µl were injected into an Acquity UPLC BEH C18 column (100 × 2 mm, 1.7 µm; Waters) held at 50°C. All mobile phases were water-acetonitrile gradients, containing 0.1% formic acid and using a flow rate of 400 µl/min. The acetonitrile content was initially 30%, then increased linearly to 100% over 7 min and kept at this level for 4 min, followed by an equilibration period at 30% for 2 min. The electrospray interface was operating in the positive ion mode at 550°C and the ion spray voltage was set to 5000 volts. The mass transitions (m/z) used were the following: 396.2/110.1 for AM404, 374.2/110.0 for HPODA, 400.2/114.0 for AM404-D4, 440.3/137.1 for arvanil and 418.3/137.1 for olvanil. The declustering potentials were between 96 and 130 volts and the collision energies between 25 and 41 volts.
Quantification of 4-aminophenol and HMBA. Sample aliquots of 5 µl were injected into a Hypercarb column (50 × 2.1 mm; Thermo). All mobile phases were water-acetonitrile gradients, containing 0.1% formic acid. The acetonitrile content was initially 2%, then increased linearly to […] over 5 min and then kept at 100% for 1 min, followed by an equilibration period at 2% for 1.5 min. The electrospray ion source was set at 550°C and used in the positive ion mode with an ion spray voltage of 5000. […] HMBA loses the amino group already in the source of the MS and therefore the mass transition used was 137.0/94.0. The declustering potentials were 100 and 90 volts and the collision energies 21 and 29 volts. No internal standard was used for these analyses.
The contents of the compounds were expressed either in moles or as normalized peak areas (nPA) and related to the protein content in the samples. The nPA was obtained by dividing the peak area of the analyte with the peak area for the internal standard in the same sample. The detection limits were calculated as the concentrations corresponding to three times the standard deviation of the blanks. When levels were below detection limit, numerical values of half the detection limit were used in the calculations.

[10] = tested on: mice; assay: Spontaneous locomotor activity in actimetry boxes; assay type: in vivo, mouse; settings: 10 min before test
Procedure: Mice were placed in actimetry boxes (Actisystem; Apelex, France) and spontaneous motor activity was assessed by determining the number of crossings of light beams during 15 min.

[11] = Formation of arvanil and olvanil in brain homogenates incubated with HMBA; assay type: in vitro ADME, rat; settings: HMBA 100 µM, 60 min
Procedure: Rat brain homogenate were prepared, as previously described. Brains were homogenized in Tris buffer (10 mM, pH 7.6), containing ethylenediaminetetraacetic acid (EDTA; 1 mM), at volumes of 5–10 ml/g tissue. Experiments were carried out on aliquots of 200 µl homogenate at 37°C as further explained in the text. The reactions were stopped by adding 1 ml ice-cold acetone, containing 1 µM [^2H8]-anandamide. The samples were kept on ice until the acetone phase was vacuum evaporated.
as §3, with “The declustering potentials were between 96 and 130 volts and the collision energies between 25 and 41 volts.” left out

[12] = 20 min after 4-AP 30 mg/kg i.p.
[13] = 20 min after 4-AP 100 mg/kg i.p.

Nc1ccc(O)cc1 [4-aminophenol]
nephrotoxic effect after a single exposure [1]: renal tubular necrosis
licking time in rat formalin test [2]: Only the highest dose reduced both phases
locomotor activity [3]: tolerated all three doses
withdrawal threshold in rat paw pressure test ([4]; 100 mg/kg i.p., 15 and 30 min after administration): increased the withdrawal threshold
withdrawal threshold in rat paw pressure test ([4]; intermediate dose 30 mg/kg i.p.): effective only at 15 min
withdrawal threshold in rat paw pressure test ([4]; low dose 10 mg/kg i.p.): inactive
global levels of the endocannabinoids anandamide and 2-arachidonoylglycerol in the rat brain [5]: did not affect the global levels
latency time in tail immersion test ([6]; FAAH+/+ mice): increased
antinociception in tail immersion test ([6]; FAAH−/− mice): failed to produce antinociception
antinociceptive activity in tail immersion test ([6]; TRPV1−/− mice): lost
licking time in formalin test ([7]; 30 mg/kg i.p., FAAH+/+ mice): reduced the licking time during the first and second phases
antinociception in formalin test ([7]; 30 mg/kg i.p., FAAH−/− mice): failed to produce antinociception
antinociceptive activity in formalin test ([7]; 30 mg/kg i.p., TRPV1−/− mice): lost
withdrawal threshold in von Frey test ([8]; FAAH+/+ mice): increased the withdrawal threshold
antinociception in von Frey test ([8]; FAAH−/− mice): failed to produce antinociception
antinociceptive activity in von Frey test ([8]; TRPV1−/− mice): lost
quotient between brain levels of 4-aminophenol and AM404 ([9]; 4-aminophenol 30 mg/kg i.p.): 223
quotient between brain levels of 4-aminophenol and HPODA ([9]; 4-aminophenol 30 mg/kg i.p.): 951
quotient between brain levels of 4-aminophenol and AM404 ([9]; 4-aminophenol 100 mg/kg i.p.): 1,547
quotient between brain levels of 4-aminophenol and HPODA ([9]; 4-aminophenol 100 mg/kg i.p.): 9,376
Blood 4-AP [9, 12]: 283 ± 15 nmol/g
Brain 4-AP [9, 12]: 91 nmol/g
Brain 4-AP ([9]; 20 min after 4-AP 30 mg/kg i.p., listed as 4-AP): 91 ± 12 nmol/g
Blood 4-AP [9, 13]: 878 ± 157 nmol/g
Brain 4-AP [9, 13]: 7470 ± 1720 nmol/g
locomotor activity ([10]; 4-aminophenol 10, 30 and 100 mg/kg i.p.): reduced locomotor activity after the highest dose

COc1cc(CN)ccc1O [HMBA, 4-hydroxy-3-methoxybenzylamine]
formalin test phases ([7]; FAAH−/− mice): affected none of these phases
formalin test phases ([7]; wild-type mice): inhibited both the first and second phases
formation of N-acylamines in brain homogenates [11]: leads to the formation of arvanil and olvanil
locomotor activity ([10]; HMBA 100, 200 and 300 mg/kg i.p.): only the dose of 100 mg/kg failed to affect locomotion
